≈ marks a conversion by molar mass, not a printed value.
What was measured:
P. aeruginosa PAO1, WT = assay: MIC, Sensititre custom plate; assay type: cell-based; settings: Pseudomonas aeruginosa, PAO1, read-out: MIC, Sensititre
Protocol: (§1) Selection of resistant mutants was performed for minocycline with and without RW01 in three independent replicates for wild-type P. aeruginosa reference strain PAO1. Tubes containing Mueller-Hinton broth (MHB) were inoculated and incubated for 24 h at 37°C. Afterward, 1/100 dilution of each tube was incubated at 37°C in MHB to late-exponential growth phase, measured by spectrophotometry at OD600. […] A control plate without antibiotic was included as inoculum control. After overnight incubation, colony counting of each treatment was performed to analyze the generation of resistant population. The mutant prevention concentration (MPC) was defined as the lowest concentration of antibiotic yielding no growth of resistant mutants. Selected mutants were checked for susceptibility profiles by using a Sensititre custom plate (Thermo Fisher Scientific, Massachusetts, USA) for Gram-negative bacteria, following the manufacturer’s instructions.

[1] = test system: PAO1 mutant MIN16_1, nalD(T43P); assay: MIC, Sensititre custom plate; assay type: cell-based; settings: Pseudomonas aeruginosa, PAO1, read-out: MIC, Sensititre
Protocol: as §1

[2] = test system: PAO1 mutant MIN16_2, nalC(aa9∆4), pilQ(nt46∆1); assay: MIC, Sensititre custom plate; assay type: cell-based; settings: Pseudomonas aeruginosa, PAO1, read-out: MIC, Sensititre
Protocol: as §1

[3] = test system: PAO1 mutant MIN16_3, nfxB(nt79∆14), pilB(N349K); assay: MIC, Sensititre custom plate; assay type: cell-based; settings: Pseudomonas aeruginosa, PAO1, read-out: MIC, Sensititre
Protocol: as §1

[4] = test system: PAO1 mutant MIN16_4, nalC(T50P), pilM(Q62X); assay: MIC, Sensititre custom plate; assay type: cell-based; settings: Pseudomonas aeruginosa, PAO1, read-out: MIC, Sensititre
Protocol: as §1

[5] = test system: PAO1 mutant MIN1_RW01_1, pmrB(Y98N); assay: MIC, Sensititre custom plate; assay type: cell-based; settings: Pseudomonas aeruginosa, PAO1, read-out: MIC, Sensititre
Protocol: as §1

[6] = test system: PAO1 mutant MIN1_RW01_2, mexR(G58E), pilB(G326D), hutC(Y181X); assay: MIC, Sensititre custom plate; assay type: cell-based; settings: Pseudomonas aeruginosa, PAO1, read-out: MIC, Sensititre
Protocol: as §1

[7] = test system: PAO1 mutant MIN1_RW01_3, pmrB(V215L); assay: MIC, Sensititre custom plate; assay type: cell-based; settings: Pseudomonas aeruginosa, PAO1, read-out: MIC, Sensititre
Protocol: as §1

[8] = test system: PAO1 mutant MIN2_RW01_1, pmrB(V215L); assay: MIC, Sensititre custom plate; assay type: cell-based; settings: Pseudomonas aeruginosa, PAO1, read-out: MIC, Sensititre
Protocol: as §1

[9] = test system: PAO1 mutant MIN2_RW01_2, pmrB(M292T); assay: MIC, Sensititre custom plate; assay type: cell-based; settings: Pseudomonas aeruginosa, PAO1, read-out: MIC, Sensititre
Protocol: as §1

[10] = test system: PAO1 mutant MIN2_RW01_3, parS(V152A); assay: MIC, Sensititre custom plate; assay type: cell-based; settings: Pseudomonas aeruginosa, PAO1, read-out: MIC, Sensititre
Protocol: as §1

[11] = test system: PAO1 mutant MIN2_RW01_4, pmrB(M292T); assay: MIC, Sensititre custom plate; assay type: cell-based; settings: Pseudomonas aeruginosa, PAO1, read-out: MIC, Sensititre
Protocol: as §1

[12] = test system: PAO1 mutant MIN32_1, mexR(R63H), pilB(N349K), PA0646(V316G); assay: MIC, Sensititre custom plate; assay type: cell-based; settings: Pseudomonas aeruginosa, PAO1, read-out: MIC, Sensititre
Protocol: as §1

[13] = test system: PAO1 mutant MIN4_RW01_1, pmrB(R429H); assay: MIC, Sensititre custom plate; assay type: cell-based; settings: Pseudomonas aeruginosa, PAO1, read-out: MIC, Sensititre
Protocol: as §1

[14] = test system: PAO1 mutant MIN4_RW01_3, pmrB(M292T); assay: MIC, Sensititre custom plate; assay type: cell-based; settings: Pseudomonas aeruginosa, PAO1, read-out: MIC, Sensititre
Protocol: as §1

[15] = test system: PAO1 mutant MIN4_RW01_4, pmrB(Y98N); assay: MIC, Sensititre custom plate; assay type: cell-based; settings: Pseudomonas aeruginosa, PAO1, read-out: MIC, Sensititre
Protocol: as §1

[16] = test system: PAO1 mutant MIN8_1, nalD(R3C), pilM(Q62X); assay: MIC, Sensititre custom plate; assay type: cell-based; settings: Pseudomonas aeruginosa, PAO1, read-out: MIC, Sensititre
Protocol: as §1

[17] = test system: PAO1 mutant MIN8_2, pilZ(nt18InsT); assay: MIC, Sensititre custom plate; assay type: cell-based; settings: Pseudomonas aeruginosa, PAO1, read-out: MIC, Sensititre
Protocol: as §1

[18] = test system: PAO1 mutant MIN8_3, pilZ(nt18InsT); assay: MIC, Sensititre custom plate; assay type: cell-based; settings: Pseudomonas aeruginosa, PAO1, read-out: MIC, Sensititre
Protocol: as §1

[19] = test system: PAO1 mutant MIN8_4, pilZ(nt18InsT); assay: MIC, Sensititre custom plate; assay type: cell-based; settings: Pseudomonas aeruginosa, PAO1, read-out: MIC, Sensititre
Protocol: as §1

[20] = test system: PAO1 mutant MIN1_RW01_4, pmrB(F124L); assay: microbe, parasite or virus in culture; assay type: cell-based; settings: Pseudomonas aeruginosa, PAO1, read-out: MIC, Sensititre
Protocol: as §1

[21] = test system: PAO1 mutant MIN4_RW01_2, pmrB(F124S); assay: microbe, parasite or virus in culture; assay type: cell-based; settings: Pseudomonas aeruginosa, PAO1, read-out: MIC, Sensititre
Protocol: as §1

P. aeruginosa 125A = assay: MIC, CLSI broth microdilution in BD Phoenix AST Broth; assay type: cell-based, Pseudomonas aeruginosa; settings: Pseudomonas aeruginosa; strain 125A; agent alone; 37°C, 18–22 h; three biological replicates
Protocol: (§2) MIC for RW01 was also tested.
(§3) FIC of RW01 (FICRW01)=MIC of RW01 in combination/MIC of RW01 alone,FIC of antibiotic (FICATB)=MIC of ATB in combination/MIC of ATB alone,FICI=FICRW01 +FICATB.
(§4) FICI was interpreted as follows: synergistic effect if FICI is ≤0.5; additive effect if 0.5 < FICI ≤ 1.0; indifferent effect if 1.0 < FICI ≤ 2.0; and finally, antagonistic effect if FICI is >2.0. The average FICI considering the antibiotic MIC (no growth in any of the replicates) at different concentrations of RW01 was calculated ([28]).

P. aeruginosa 125B = assay: as above; assay type: cell-based, Pseudomonas aeruginosa; settings: Pseudomonas aeruginosa; strain 125B; agent alone; 37°C, 18–22 h; three biological replicates
Protocol: as §2, §3, §4

P. aeruginosa 41A = assay: as above; assay type: cell-based, Pseudomonas aeruginosa; settings: Pseudomonas aeruginosa; strain 41A; agent alone; 37°C, 18–22 h; three biological replicates
Protocol: as §2, §3, §4

P. aeruginosa 41B = assay: as above; assay type: cell-based, Pseudomonas aeruginosa; settings: Pseudomonas aeruginosa; strain 41B; agent alone; 37°C, 18–22 h; three biological replicates
Protocol: as §2, §3, §4

P. aeruginosa PAO1 = assay: as above; assay type: cell-based, Pseudomonas aeruginosa; settings: Pseudomonas aeruginosa, PAO1, strain PAO1; agent alone; 37°C, 18–22 h; three biological replicates; read-out: MIC
Protocol: as §2, §3, §4

P. aeruginosa PAOUW = assay: as above; assay type: cell-based, Pseudomonas aeruginosa; settings: Pseudomonas aeruginosa, strain PAOUW; agent alone; 37°C, 18–22 h; three biological replicates; read-out: MIC
Protocol: as §2, §3, §4

P. aeruginosa PAOUW∆oprF = assay: as above; assay type: cell-based, Pseudomonas aeruginosa; settings: Pseudomonas aeruginosa, strain PAOUWΔoprF; agent alone; 37°C, 18–22 h; three biological replicates
Protocol: as §2, §3, §4

P. aeruginosa PAOΔmexR = assay: as above; assay type: cell-based, Pseudomonas aeruginosa; settings: for MIC: Pseudomonas aeruginosa
Protocol: as §2, §3, §4

P. aeruginosa PAOΔmexZ = assay: as above; assay type: cell-based, Pseudomonas aeruginosa; settings: Pseudomonas aeruginosa, strain PAOΔmexZ; agent alone; 37°C, 18–22 h; three biological replicates
Protocol: as §2, §3, §4

P. aeruginosa PAOΔoprM = assay: as above; assay type: cell-based, Pseudomonas aeruginosa; settings: Pseudomonas aeruginosa
Protocol: as §2, §3, §4

Structure (SMILES)	MIC (P. aeruginosa PAO1, WT) [µg/mL]	MIC [1] [µg/mL]	MIC [2] [µg/mL]	MIC [3] [µg/mL]	MIC [4] [µg/mL]	MIC [5] [µg/mL]	MIC [6] [µg/mL]	MIC [7] [µg/mL]	MIC [9] [µg/mL]	MIC [10] [µg/mL]	MIC [12] [µg/mL]	MIC (P. aeruginosa 125A) [µg/mL]	MIC (P. aeruginosa 125B) [µg/mL]	MIC (P. aeruginosa 41A) [µg/mL]	MIC (P. aeruginosa 41B) [µg/mL]	MIC (P. aeruginosa PAO1) [µg/mL]	MIC (P. aeruginosa PAOUW) [µg/mL]	MIC (P. aeruginosa PAOUW∆oprF) [µg/mL]	MIC (P. aeruginosa PAOΔmexZ) [µg/mL]	MIC (P. aeruginosa PAOΔoprM) [µg/mL]	further results
NC[C@H]1O[C@H](O[C@H]2[C@H](O)[C@@H](O[C@H]3O[C@H](CO)[C@@H](O)[C@H](N)[C@H]3O)[C@H](N)C[C@@H]2N)[C@H](N)C[C@@H]1O [TOB, tobramycin]	0.25 to 0.5 (≈ 0.535 to 1.07 µM)	0.5 (≈ 1.07 µM)	≤ 0.25	≤ 0.25	≤ 0.25	1 (≈ 2.14 µM)	≤ 0.25	1 (≈ 2.14 µM)	0.5 (≈ 1.07 µM)	1 (≈ 2.14 µM)	0.25 to 0.5 (≈ 0.535 to 1.07 µM)										MIC [8]: 0.5 µg/mL (≈ 1.07 µM); MIC [11]: 0.5 µg/mL (≈ 1.07 µM); MIC [13]: 0.5 µg/mL (≈ 1.07 µM); MIC [14]: 0.5 µg/mL (≈ 1.07 µM); MIC [15]: 1 µg/mL (≈ 2.14 µM); MIC [16]: 0.5 µg/mL (≈ 1.07 µM); MIC [17]: 0.5 µg/mL (≈ 1.07 µM); MIC [18]: ≤ 0.25 µg/mL; MIC [19]: 0.5 µg/mL (≈ 1.07 µM); MIC [20]: ≤ 0.25 µg/mL; MIC [21]: 0.5 µg/mL (≈ 1.07 µM)
CO/N=C(\C(=O)N[C@@H]1C(=O)N2C(C(=O)[O-])=C(C[N+]3(C)CCCC3)CS[C@H]12)c1csc(N)n1 [Cefepime, cefepime]	≤ 1	4 (≈ 8.32 µM)	4 (≈ 8.32 µM)	4 (≈ 8.32 µM)	4 (≈ 8.32 µM)	≤ 1	4 (≈ 8.32 µM)	≤ 1	4 (≈ 8.32 µM)	4 (≈ 8.32 µM)	4 (≈ 8.32 µM)	4	4	8	8	2	4	0.5	2	1	Antibiotic MIC + RW01 100 mg/L (P. aeruginosa PAOΔmexR; strain PAOΔmexR, MIC of the antibiotic with fixed 100 mg/L RW01): 0.5 µg/mL; Potentiation (fold) (P. aeruginosa PAOΔmexR; strain PAOΔmexR, antibiotic MIC alone vs with RW01 100 mg/L): ≥ 8 fold; MIC [11]: 4 µg/mL (≈ 8.32 µM); MIC [13]: 4 to 8 µg/mL (≈ 8.32 to 16.6 µM); MIC [14]: ≤ 1 µg/mL; MIC [15]: ≤ 1 µg/mL; MIC [16]: 4 µg/mL (≈ 8.32 µM); MIC [17]: 4 µg/mL (≈ 8.32 µM); MIC [18]: 4 µg/mL (≈ 8.32 µM); MIC [19]: 4 µg/mL (≈ 8.32 µM); MIC [21]: ≤ 1 µg/mL
CCn1cc(C(=O)O)c(=O)c2cc(F)c(N3CCNCC3)cc21 [Norfloxacin, norfloxacin]												1	1	2	4	0.5	4	1	1	0.25	MIC (P. aeruginosa PAOΔmexR): 1 µg/mL
C[C@H]1[C@H](NC(=O)/C(=N\OC(C)(C)C(=O)O)c2csc(N)n2)C(=O)N1S(=O)(=O)O [Aztreonam, aztreonam]	2 to 4 (≈ 4.59 to 9.19 µM)	16 (≈ 36.7 µM)	8 to 16 (≈ 18.4 to 36.7 µM)	2 to 4 (≈ 4.59 to 9.19 µM)	16 (≈ 36.7 µM)	≤ 2	16 (≈ 36.7 µM)	≤ 2	4 (≈ 9.19 µM)	4 (≈ 9.19 µM)	16 (≈ 36.7 µM)	8	8	8	8	8	2	8	8	0.5	MIC (P. aeruginosa PAOΔmexR): 4 µg/mL; MIC [8]: 4 to 8 µg/mL (≈ 9.19 to 18.4 µM); MIC [13]: 16 µg/mL (≈ 36.7 µM); MIC [14]: ≤ 2 µg/mL; MIC [15]: ≤ 2 µg/mL; MIC [18]: 16 µg/mL (≈ 36.7 µM); MIC [19]: 16 µg/mL (≈ 36.7 µM); MIC [21]: ≤ 2 µg/mL
C[C@H]1COc2c(N3CCN(C)CC3)c(F)cc3c(=O)c(C(=O)O)cn1c23 [Levofloxacin, levofloxacin]												0.5	0.5	2	1	0.5	4	0.5	0.5	0.125	MIC (P. aeruginosa PAOΔmexR): 0.5 µg/mL

— PMC11823630, “In vitro potentiation of tetracyclines in Pseudomonas aeruginosa by RW01, a new cyclic peptide” (Antimicrobial Agents and Chemotherapy, 2024)
